# ChEMBL document CHEMBL1153471, “3,5-Diphenylpent-2-enoic acids as allosteric activators of the protein kinase PDK1: structure-activity relationships and thermodynamic characterization of binding as paradigms for PIF-binding pocket-targeting compounds” (J Med Chem, 2009)
# Residue numbers refer to the chain shown, from its start. The source made the active and inactive calls. The calls are words filed in the database; no cut-off is given here.
# Columns and labels:
# [1] = biological target: T1, 3-phosphoinositide-dependent protein kinase 1 (Homo sapiens, UniProt O15530); assay: Binding affinity to PDK1 (50 to 359) by isothermal titration calorimetry
# T1 sequence (O15530 whole entry): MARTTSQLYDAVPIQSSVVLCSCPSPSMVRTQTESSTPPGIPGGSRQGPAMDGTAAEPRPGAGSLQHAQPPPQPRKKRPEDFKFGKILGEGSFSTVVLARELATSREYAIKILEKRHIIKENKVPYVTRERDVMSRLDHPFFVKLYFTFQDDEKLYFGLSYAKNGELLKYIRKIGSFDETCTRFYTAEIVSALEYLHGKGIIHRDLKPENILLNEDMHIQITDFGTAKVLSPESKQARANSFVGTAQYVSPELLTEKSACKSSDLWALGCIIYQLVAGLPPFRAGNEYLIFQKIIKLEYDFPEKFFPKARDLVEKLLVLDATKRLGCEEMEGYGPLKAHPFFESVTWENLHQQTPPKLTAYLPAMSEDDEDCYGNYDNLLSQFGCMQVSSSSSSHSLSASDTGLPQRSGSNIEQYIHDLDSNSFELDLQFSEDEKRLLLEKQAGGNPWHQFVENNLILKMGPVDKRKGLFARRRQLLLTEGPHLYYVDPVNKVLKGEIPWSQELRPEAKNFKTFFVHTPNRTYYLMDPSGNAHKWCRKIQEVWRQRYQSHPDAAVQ
# [2] = biological target: T2, 3-phosphoinositide-dependent protein kinase 1 (Homo sapiens) (UniProt O15530)
# T2 sequence (whole entry): T1 sequence (O15530 whole entry)
# [3] = biological target: T2, 3-phosphoinositide-dependent protein kinase 1 (Homo sapiens); assay: Binding affinity to wild type recombinant GST-PDK1 expressed in HEK293 cells at 2 uM; assay type: cell-based
# [4] = test system: T3, 3-phosphoinositide-dependent protein kinase 1 (Homo sapiens), O15530 [V127T]; assay: Binding affinity to GST-PDK1 V127T mutant expressed in HEK293 cells at 2 uM; assay type: cell-based
# T3 sequence (whole entry): T1 sequence (O15530 whole entry) with V127T
Compound,Kd ([1]; read-out: Kd) [µM],Ka [2] [M⁻¹],Kd [1],other results
O=C(O)/C=C(/CCc1c[nH]c2ccccc12)c1ccccc1,10,–,–,–
O=C(O)/C=C(/CCc1ccc(C(F)(F)F)cc1)c1ccccc1,10.4,96600,–,–
O=C(O)/C=C(/CCc1ccc(Cl)cc1Cl)c1ccccc1,5.9,–,–,–
O=C(O)/C=C(/CCc1ccc2ccccc2c1)c1ccccc1,13.8,–,–,–
O=C(O)/C=C(/CCc1ccc(Cl)c(Cl)c1)c1ccccc1,13.9,71800,–,–
O=C(O)/C=C(/CCc1ccc(Br)cc1)c1ccccc1,20.9,47800,–,–
O=C(O)/C=C(\CCc1ccc(Br)cc1F)c1ccccc1,–,–,Not Active,–
O=C(O)/C=C(\CCc1ccc2ccccc2c1)c1ccccc1,–,–,Not Active,–
O=C(O)/C=C(\CCC1C=Nc2ccccc21)c1ccccc1 (centres undefined),–,–,Not Active,–
H-REPRILSEEEQEMFRDFDYIADEC-OH,–,–,–,Activity [3]: Active; Activity [4]: Active
